# Measured values from patent publication US20230146455A1, “TREATMENT OF INFLAMMATORY DISEASES WITH PEPTIDES AND PHARMACEUTICAL COMPOSITIONS” (Yuyu Pharma, Inc., priority 2020, published 2023).
# Values joined by “and” are separate entries in the source; they are usually repeats but may differ in a detail not shown here. Equal entries are not always repeated. Where a SMILES comes first, the peptide text is derived from it. [ ]: non-standard residue; d: D form. Hyp = O=C(O)[C@@H]1C[C@@H](O)CN1
# Tested on: IL-10
# Experiment: Example 9 Luminex, LPS hPBMCs: IL-10
# Type: cell-based, human
# Details: for Concentration / conc/live cell (pg/10^5): IL-10
# Procedure: Treatment Human PBMCs were pretreated with YY-101, YDE-011 and YDE-043 or reference compound; Xiidra® at various concentration (ranging from 1 nM to 100 uM) for 2 h before stimulation. An equal volume of 0.5% DMSO was used as a vehicle control. Then, the cells were treated with LPS at 5 ug/ml. The supernatants from treated cells were harvested at 24 h and placed in a 96 well for Luminex cytokine & chemokine profiling using a Luminex 200 multiplex assay (Luminex; R&D system, USA).
# The main study arm with triplicate wells per group in a 24-well plate: • 1. Blank • 2. PBMC: 0.5% DMSO • 3. PBMC+LPS (5 ug/ml) • 4. PBMC+YY-101 100 uM • 5. PBMC+YY-101 10 uM • 6. PBMC+YY-101 1 uM • 7. PBMC+YY-101 0.1 uM • 8. PBMC+YY-101 0.01 uM • 9. PBMC+LPS (5 ug/ml)+Xiidra®100 uM • 10. PBMC+LPS (5 ug/ml)+Xiidra® 10 uM • 11. PBMC+LPS (5 ug/ml)+Xiidra® 1 uM • 12. PBMC+LPS (5 ug/ml)+Xiidra®0.1 uM • 13. PBMC+LPS (5 ug/ml)+Xiidra®0.01 uM • 14. PBMC+LPS (5 ug/ml)+Xiidra®0.001 uM • 15. PBMC+LPS (5 ug/ml)+YY-101 100 uM • 16. PBMC+LPS (5 ug/ml)+YY-101 10 uM • 17. PBMC+LPS (5 ug/ml)+YY-101 1 uM • 18. PBMC+LPS (5 ug/ml)+YY-101 0.1 uM • 19. PBMC+LPS (5 ug/ml)+YY-101 0.01 uM • 20. PBMC+LPS (5 ug/ml)+YY-101 0.001 uM • 21. PBMC+LPS (5 ug/ml)+YDE-011 100 uM • 22. PBMC+LPS (5 ug/ml)+YDE-011 10 uM • 23. PBMC+LPS (5 ug/ml)+YDE-011 1 uM • 24. PBMC+LPS (5 ug/ml)+YDE-011 0.1 uM • 25. PBMC+LPS (5 ug/ml)+YDE-011 0.01 uM • 26. PBMC+LPS (5 ug/ml)+YDE-011 0.001 uM • 27. PBMC+LPS (5 ug/ml)+YDE-043 100 uM • 28. PBMC+LPS (5 ug/ml)+YDE-043 10 uM • 29. PBMC+LPS (5 ug/ml)+YDE-043 1 uM • 30. PBMC+LPS (5 ug/ml)+YDE-043 0.1 uM • 31. PBMC+LPS (5 ug/ml)+YDE-043 0.01 uM • 32. PBMC+LPS (5 ug/ml)+YDE-043 0.001 uM
# Multiplex assay was used to measure 30 cytokines and chemokines. The 1:2, 1:10 and 1:200 diluted cell supernatant and serial dilution of the standard were dispensed into a 96 well plate at 50 ul/well. Then, the pre-mixed cocktail of antibody-coated magnetic beads was dispensed at 50 ul/well and incubated at room temperature for 2 h in a horizontal orbital microplate shaker at 800±500 rpm. The beads were washed using a magnetic device to prevent loss. The biotin-antibody was dispensed in 50 ul of each well and incubated at room temperature for 1 h in a shaker at 800±500 rpm. After washing, streptavidin-PE was added at 50 ul/well and incubated at room temperature for 30 min in a shaker under the same conditions. Finally, after washing, wash buffer (100 ul/well) was added to the plate and incubated in a shaker for 2 min. The Luminex™ 200 setting were set according to the manufacturer's protocol. The data was calculated with a standard five-parameter logistic nonlinear regression analysis of the data (xPonent software 4.2, USA). The levels of cytokine/chemokine are normalized to the live cell counts (1×10^5 cells/mL) and presented as concentrations per mL (pg/mL or ng/mL).
# [1] = PBMC + LPS(5 ug/ml) + test article 0.001 uM, Mean
# [2] = PBMC + LPS(5 ug/ml) + test article 0.001 uM, single replicates
# [3] = PBMC + LPS(5 ug/ml) + test article 0.01 uM, Mean
# [4] = PBMC + LPS(5 ug/ml) + test article 0.01 uM, single replicates
# [5] = PBMC + LPS(5 ug/ml) + test article 0.1 uM, Mean
# [6] = PBMC + LPS(5 ug/ml) + test article 0.1 uM, single replicates
# [7] = PBMC + LPS(5 ug/ml) + test article 1 uM, Mean
# [8] = PBMC + LPS(5 ug/ml) + test article 1 uM, single replicates
# [9] = PBMC + LPS(5 ug/ml) + test article 10 uM, Mean
# [10] = PBMC + LPS(5 ug/ml) + test article 10 uM, single replicates
# [11] = PBMC + LPS(5 ug/ml) + test article 100 uM, Mean
# [12] = PBMC + LPS(5 ug/ml) + test article 100 uM, single replicates
# [13] = PBMC + test article 0.01 uM, no LPS, Mean
# [14] = PBMC + test article 0.01 uM, no LPS, single replicates
# [15] = PBMC + test article 0.1 uM, no LPS, Mean
# [16] = PBMC + test article 0.1 uM, no LPS, single replicates
# [17] = PBMC + test article 10 uM, no LPS, Mean
# [18] = PBMC + test article 10 uM, no LPS, single replicates
# [19] = PBMC + test article 100 uM, no LPS, Mean
# [20] = PBMC + test article 100 uM, no LPS, single replicates
structure (smiles),measurement,setting,value
CC(C)C[C@H](NC(=O)CNC(=O)[C@H](CC(=O)O)NC(=O)[C@H](CCC(N)=O)NC(=O)CNC(=O)[C@@H]1C[C@@H](O)CN1)C(=O)N[C@@H](C)C(=O)NCC(=O)N1CCC[C@H]1C(=O)N[C@@H](CCCCN)C(=O)O [YY-101] (H-[Hyp]GQDGLAGPK-OH; N-terminus and C-terminus assumed),Concentration,[1],479.4 pg/mL
same,conc/live cell (pg/10^5),[1],74.9 pg/10^5
same,Concentration,[2],501.5 pg/mL and 488.8 pg/mL and 447.9 pg/mL
same,conc/live cell (pg/10^5),[2],88.0 pg/10^5 and 68.9 pg/10^5 and 67.9 pg/10^5
same,Concentration,[3],499.9 pg/mL
same,conc/live cell (pg/10^5),[3],81.1 pg/10^5
same,Concentration,[4],492.8 pg/mL and 499.5 pg/mL and 507.4 pg/mL
same,conc/live cell (pg/10^5),[4],77.0 pg/10^5 and 83.2 pg/10^5 (2×)
same,Concentration,[5],445.6 pg/mL
same,conc/live cell (pg/10^5),[5],76.6 pg/10^5
same,Concentration,[6],426.9 pg/mL and 459.4 pg/mL and 450.6 pg/mL
same,conc/live cell (pg/10^5),[6],68.9 pg/10^5 and 88.3 pg/10^5 and 72.7 pg/10^5
same,Concentration,[7],519.9 pg/mL
same,conc/live cell (pg/10^5),[7],80.1 pg/10^5
same,Concentration,[8],556.7 pg/mL and 484.8 pg/mL and 518.0 pg/mL
same,conc/live cell (pg/10^5),[8],88.4 pg/10^5 and 68.3 pg/10^5 and 83.6 pg/10^5
same,Concentration,[9],474.4 pg/mL
same,conc/live cell (pg/10^5),[9],72.3 pg/10^5
same,Concentration,[10],464.8 pg/mL and 537.1 pg/mL and 421.4 pg/mL
same,conc/live cell (pg/10^5),[10],77.5 pg/10^5 and 83.9 pg/10^5 and 55.4 pg/10^5
same,Concentration,[11],172.4 pg/mL
same,conc/live cell (pg/10^5),[11],29.9 pg/10^5
same,Concentration,[12],173.5 pg/mL and 168.6 pg/mL and 175.1 pg/mL
same,conc/live cell (pg/10^5),[12],27.5 pg/10^5 and 27.2 pg/10^5 and 35.0 pg/10^5
same,Concentration,[13],4.3 pg/mL
same,conc/live cell (pg/10^5),[13],0.5 pg/10^5
same,Concentration,[14],4.3 pg/mL
same,conc/live cell (pg/10^5),[14],0.0 pg/10^5 and 0.9 pg/10^5
same,Concentration,[15],4.3 pg/mL
same,conc/live cell (pg/10^5),[15],0.4 pg/10^5
same,Concentration,[16],4.3 pg/mL
same,conc/live cell (pg/10^5),[16],0.0 pg/10^5 and 0.7 pg/10^5
same,conc/live cell (pg/10^5),"PBMC + test article 1 uM, no LPS, Mean",0.0 pg/10^5
same,conc/live cell (pg/10^5),"PBMC + test article 1 uM, no LPS, single replicates",0.0 pg/10^5
same,Concentration,[17],12.6 pg/mL
same,conc/live cell (pg/10^5),[17],2.0 pg/10^5
same,Concentration,[18],23.2 pg/mL and 2.0 pg/mL
same,conc/live cell (pg/10^5),[18],3.6 pg/10^5 and 0.3 pg/10^5
same,Concentration,[19],8.2 pg/mL
same,conc/live cell (pg/10^5),[19],0.6 pg/10^5
same,Concentration,[20],8.2 pg/mL
same,conc/live cell (pg/10^5),[20],1.3 pg/10^5 and 0.0 pg/10^5
same,LPS-induced IL-10 (in words),"LPS 5 ug/mL 24 hrs, 100 uM to 1 nM",significantly reduced
CC(C)C[C@H](NC(=O)[C@H](CCC(N)=O)NC(=O)CNC(=O)[C@@H]1C[C@@H](O)CN1)C(=O)NCC(=O)O [YDE-043] (H-[Hyp]GQLG-OH; N-terminus and C-terminus assumed),Concentration,[1],305.6 pg/mL
same,conc/live cell (pg/10^5),[1],62.5 pg/10^5
same,Concentration,[2],335.7 pg/mL and 298.3 pg/mL and 282.9 pg/mL
same,conc/live cell (pg/10^5),[2],76.3 pg/10^5 and 49.7 pg/10^5 and 61.5 pg/10^5
same,Concentration,[3],344.9 pg/mL
same,conc/live cell (pg/10^5),[3],65.7 pg/10^5
same,Concentration,[4],344.9 pg/mL and 362.6 pg/mL and 327.1 pg/mL
same,conc/live cell (pg/10^5),[4],76.7 pg/10^5 and 54.9 pg/10^5 and 65.4 pg/10^5
same,Concentration,[5],322.4 pg/mL
same,conc/live cell (pg/10^5),[5],59.9 pg/10^5
same,Concentration,[6],330.0 pg/mL and 312.8 pg/mL and 324.3 pg/mL
same,conc/live cell (pg/10^5),[6],66.0 pg/10^5 and 55.9 pg/10^5 and 57.9 pg/10^5
same,Concentration,[7],327.6 pg/mL
same,conc/live cell (pg/10^5),[7],62.1 pg/10^5
same,Concentration,[8],328.6 pg/mL and 312.8 pg/mL and 341.4 pg/mL
same,conc/live cell (pg/10^5),[8],56.7 pg/10^5 and 65.2 pg/10^5 and 64.4 pg/10^5
same,Concentration,[9],297.7 pg/mL
same,conc/live cell (pg/10^5),[9],55.2 pg/10^5
same,Concentration,[10],318.5 pg/mL and 277.0 pg/mL and 297.5 pg/mL
same,conc/live cell (pg/10^5),[10],61.3 pg/10^5 and 51.3 pg/10^5 and 53.1 pg/10^5
same,Concentration,[11],109.4 pg/mL
same,conc/live cell (pg/10^5),[11],17.4 pg/10^5
same,Concentration,[12],106.7 pg/mL and 112.1 pg/mL
same,conc/live cell (pg/10^5),[12],17.2 pg/10^5 and 17.5 pg/10^5
CC(C)C[C@H](NC(=O)CNC(=O)[C@H](CC(C)C)NC(=O)[C@H](CCC(N)=O)NC(=O)CNC(=O)[C@@H]1C[C@@H](O)CN1)C(=O)N[C@@H](C)C(=O)NCC(=O)N1CCC[C@H]1C(=O)N[C@@H](CCCCN)C(=O)O [YDE-011] (H-[Hyp]GQLGLAGPK-OH),Concentration,[1],303.8 pg/mL
same,conc/live cell (pg/10^5),[1],57.2 pg/10^5
same,Concentration,[2],291.0 pg/mL and 314.2 pg/mL and 306.3 pg/mL
same,conc/live cell (pg/10^5),[2],64.7 pg/10^5 and 54.2 pg/10^5 and 52.8 pg/10^5
same,Concentration,[3],318.0 pg/mL
same,conc/live cell (pg/10^5),[3],54.4 pg/10^5
same,Concentration,[4],333.6 pg/mL and 325.0 pg/mL and 295.4 pg/mL
same,conc/live cell (pg/10^5),[4],52.9 pg/10^5 and 52.4 pg/10^5 and 57.9 pg/10^5
same,Concentration,[5],308.9 pg/mL
same,conc/live cell (pg/10^5),[5],54.4 pg/10^5
same,Concentration,[6],299.0 pg/mL and 317.8 pg/mL and 309.9 pg/mL
same,conc/live cell (pg/10^5),[6],45.3 pg/10^5 and 63.6 pg/10^5 and 54.4 pg/10^5
same,Concentration,[7],314.7 pg/mL
same,conc/live cell (pg/10^5),[7],62.8 pg/10^5
same,Concentration,[8],314.2 pg/mL and 319.3 pg/mL and 310.6 pg/mL
same,conc/live cell (pg/10^5),[8],57.1 pg/10^5 and 66.5 pg/10^5 and 64.7 pg/10^5
same,Concentration,[9],300.7 pg/mL
same,conc/live cell (pg/10^5),[9],57.3 pg/10^5
same,Concentration,[10],299.0 pg/mL and 295.4 pg/mL and 307.7 pg/mL
same,conc/live cell (pg/10^5),[10],55.4 pg/10^5 and 50.9 pg/10^5 and 65.5 pg/10^5
same,Concentration,[11],111.4 pg/mL
same,conc/live cell (pg/10^5),[11],18.4 pg/10^5
same,Concentration,[12],99.4 pg/mL and 113.9 pg/mL and 121.1 pg/mL
same,conc/live cell (pg/10^5),[12],16.3 pg/10^5 and 18.7 pg/10^5 and 20.2 pg/10^5
